Laboratory results from ChEMBL document CHEMBL3588800, “Novel Bioactive Hybrid Compound Dual Targeting Estrogen Receptor and Histone Deacetylase for the Treatment of Breast Cancer” (J Med Chem, 2015).

Tests used:
Vero = assay: cells; format: ADME, cell-based; conditions: Chlorocebus sabaeus, 72 h
[1] = target: T1, Protein deacetylase HDAC6 (Homo sapiens, UniProt Q9UBN7); assay: Inhibition of human recombinant HDAC6 after 15 mins by fluorogenic assay; conditions: read-out: IC50
T1 sequence (Q9UBN7 whole entry): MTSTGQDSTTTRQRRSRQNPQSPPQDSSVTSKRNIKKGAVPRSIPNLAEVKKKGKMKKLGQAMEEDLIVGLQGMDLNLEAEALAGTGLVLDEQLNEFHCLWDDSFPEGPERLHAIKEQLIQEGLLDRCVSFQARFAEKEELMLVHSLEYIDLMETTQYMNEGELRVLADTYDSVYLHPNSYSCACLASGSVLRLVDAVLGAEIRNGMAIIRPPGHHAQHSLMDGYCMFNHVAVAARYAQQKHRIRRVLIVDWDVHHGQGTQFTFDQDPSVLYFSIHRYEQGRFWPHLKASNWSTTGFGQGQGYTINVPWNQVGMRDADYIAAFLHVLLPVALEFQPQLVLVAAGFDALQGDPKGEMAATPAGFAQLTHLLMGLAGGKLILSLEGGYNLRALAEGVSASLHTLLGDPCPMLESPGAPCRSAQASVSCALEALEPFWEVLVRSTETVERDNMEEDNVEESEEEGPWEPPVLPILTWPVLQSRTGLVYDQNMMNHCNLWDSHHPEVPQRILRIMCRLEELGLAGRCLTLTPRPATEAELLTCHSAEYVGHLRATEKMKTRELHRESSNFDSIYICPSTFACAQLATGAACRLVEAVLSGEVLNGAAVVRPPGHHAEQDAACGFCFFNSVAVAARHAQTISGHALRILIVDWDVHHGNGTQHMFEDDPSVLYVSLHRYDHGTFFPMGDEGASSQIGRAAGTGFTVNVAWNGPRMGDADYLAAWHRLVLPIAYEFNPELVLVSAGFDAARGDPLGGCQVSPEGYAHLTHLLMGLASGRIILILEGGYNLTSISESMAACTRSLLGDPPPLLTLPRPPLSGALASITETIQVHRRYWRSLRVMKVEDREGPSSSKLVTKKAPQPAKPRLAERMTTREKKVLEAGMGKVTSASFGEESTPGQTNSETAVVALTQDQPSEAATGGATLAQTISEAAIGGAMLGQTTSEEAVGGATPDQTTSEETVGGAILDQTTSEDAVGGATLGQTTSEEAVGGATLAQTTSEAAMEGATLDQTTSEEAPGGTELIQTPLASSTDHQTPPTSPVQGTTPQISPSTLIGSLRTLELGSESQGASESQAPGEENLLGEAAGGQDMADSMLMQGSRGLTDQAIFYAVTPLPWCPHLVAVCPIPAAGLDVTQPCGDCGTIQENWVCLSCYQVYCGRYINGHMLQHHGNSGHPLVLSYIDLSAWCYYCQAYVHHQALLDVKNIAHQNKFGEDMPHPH

MCF7 = assay: cells; format: functional, cell-based; conditions: Homo sapiens, MCF7, 72 h
Estrogen receptor beta [2] = target: T2, Estrogen receptor beta (Homo sapiens, UniProt Q92731); assay: Antagonist activity at ER-beta (unknown origin) transfected in HEK293T cells assessed as inhibition of transcriptional activity after 24 hrs by luciferase reporter gene assay relative to 17-beta estradiol; format: cell-based; conditions: HEK-293T
DU-145 = assay: cells; format: functional, cell-based; conditions: Homo sapiens, DU-145, 72 h
Estrogen receptor beta [3] = target: T2, Estrogen receptor beta; assay: Agonist activity at ER-beta (unknown origin) transfected in HEK293T cells assessed as stimulation of transcriptional activity after 24 hrs by luciferase reporter gene assay relative to 17-beta estradiol; format: cell-based; conditions: HEK-293T
[4] = target: T3, Estrogen receptor (Homo sapiens) (UniProt P03372); assay: Agonist activity at ER-alpha (unknown origin) transfected in HEK293T cells assessed as stimulation of transcriptional activity after 24 hrs by luciferase reporter gene assay relative to 17-beta estradiol; format: cell-based; conditions: HEK-293T
T3 sequence (whole entry): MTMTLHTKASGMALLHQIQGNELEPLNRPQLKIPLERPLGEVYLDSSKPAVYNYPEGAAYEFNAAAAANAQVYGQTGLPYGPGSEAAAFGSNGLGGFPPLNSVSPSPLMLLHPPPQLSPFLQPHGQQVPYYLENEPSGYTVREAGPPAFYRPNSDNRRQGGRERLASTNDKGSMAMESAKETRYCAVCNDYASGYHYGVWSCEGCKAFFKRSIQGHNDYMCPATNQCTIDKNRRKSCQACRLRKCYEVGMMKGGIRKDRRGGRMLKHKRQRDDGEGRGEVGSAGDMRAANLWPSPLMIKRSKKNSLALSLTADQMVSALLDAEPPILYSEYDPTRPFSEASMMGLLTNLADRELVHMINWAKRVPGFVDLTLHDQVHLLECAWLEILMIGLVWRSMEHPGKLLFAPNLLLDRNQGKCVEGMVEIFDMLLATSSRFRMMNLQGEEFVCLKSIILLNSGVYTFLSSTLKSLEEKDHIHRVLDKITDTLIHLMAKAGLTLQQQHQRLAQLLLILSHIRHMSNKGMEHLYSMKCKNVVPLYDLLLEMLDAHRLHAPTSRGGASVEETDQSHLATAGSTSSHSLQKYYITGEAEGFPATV

Histone deacetylase 1 = Histone deacetylase 1 (Homo sapiens, UniProt Q13547); assay: Inhibition of human recombinant HDAC1 after 15 mins by fluorogenic assay
[5] = target: T3, Estrogen receptor (Homo sapiens); assay: Antagonist activity at ER-alpha (unknown origin) transfected in HEK293T cells assessed as inhibition of transcriptional activity after 24 hrs by luciferase reporter gene assay relative to 17-beta estradiol; format: cell-based; conditions: HEK-293T
Estrogen receptor [6] = target: T4, Estrogen receptor (Homo sapiens, UniProt P03372); assay: Agonist activity at ER-alpha (unknown origin) transfected in HEK293T cells assessed as stimulation of transcriptional activity after 24 hrs by luciferase reporter gene assay; format: cell-based, HEK-293T
T4 sequence (P03372 whole entry): T3 sequence (whole entry)

Estrogen receptor beta [7] = target: T2, Estrogen receptor beta; assay: Agonist activity at ER-beta (unknown origin) transfected in HEK293T cells assessed as stimulation of transcriptional activity after 24 hrs by luciferase reporter gene assay; format: cell-based, HEK-293T
Estrogen receptor [8] = target: T4, Estrogen receptor; assay: Antagonist activity at ER-alpha (unknown origin) transfected in HEK293T cells assessed as inhibition of transcriptional activity after 24 hrs by luciferase reporter gene assay; format: cell-based, HEK-293T
Estrogen receptor beta [9] = target: T2, Estrogen receptor beta; assay: Binding affinity to human ER-beta ligand binding domain after 2 hrs by competitive fluorometric binding assay
Estrogen receptor [10] = target: T4, Estrogen receptor; assay: Binding affinity to human ER-alpha ligand binding domain after 2 hrs by competitive fluorometric binding assay
Estrogen receptor beta [11] = target: T2, Estrogen receptor beta; assay: Antagonist activity at ER-beta (unknown origin) transfected in HEK293T cells assessed as inhibition of transcriptional activity after 24 hrs by luciferase reporter gene assay; format: cell-based, HEK-293T

Chain of Histone deacetylase 1 (Q13547 whole entry): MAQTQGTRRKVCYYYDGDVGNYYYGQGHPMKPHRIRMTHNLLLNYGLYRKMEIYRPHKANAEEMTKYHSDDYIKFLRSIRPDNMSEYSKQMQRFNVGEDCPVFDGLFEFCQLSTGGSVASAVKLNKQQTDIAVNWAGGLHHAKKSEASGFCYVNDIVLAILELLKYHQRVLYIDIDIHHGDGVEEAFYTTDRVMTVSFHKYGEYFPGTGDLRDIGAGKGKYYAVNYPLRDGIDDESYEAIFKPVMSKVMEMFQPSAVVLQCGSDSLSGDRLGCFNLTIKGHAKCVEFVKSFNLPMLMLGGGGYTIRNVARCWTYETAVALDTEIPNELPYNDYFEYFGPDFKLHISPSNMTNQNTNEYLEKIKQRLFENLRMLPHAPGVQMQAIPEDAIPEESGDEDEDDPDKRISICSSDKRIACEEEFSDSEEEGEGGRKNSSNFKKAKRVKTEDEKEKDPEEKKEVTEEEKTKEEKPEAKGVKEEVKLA
T2 sequence (Q92731 whole entry): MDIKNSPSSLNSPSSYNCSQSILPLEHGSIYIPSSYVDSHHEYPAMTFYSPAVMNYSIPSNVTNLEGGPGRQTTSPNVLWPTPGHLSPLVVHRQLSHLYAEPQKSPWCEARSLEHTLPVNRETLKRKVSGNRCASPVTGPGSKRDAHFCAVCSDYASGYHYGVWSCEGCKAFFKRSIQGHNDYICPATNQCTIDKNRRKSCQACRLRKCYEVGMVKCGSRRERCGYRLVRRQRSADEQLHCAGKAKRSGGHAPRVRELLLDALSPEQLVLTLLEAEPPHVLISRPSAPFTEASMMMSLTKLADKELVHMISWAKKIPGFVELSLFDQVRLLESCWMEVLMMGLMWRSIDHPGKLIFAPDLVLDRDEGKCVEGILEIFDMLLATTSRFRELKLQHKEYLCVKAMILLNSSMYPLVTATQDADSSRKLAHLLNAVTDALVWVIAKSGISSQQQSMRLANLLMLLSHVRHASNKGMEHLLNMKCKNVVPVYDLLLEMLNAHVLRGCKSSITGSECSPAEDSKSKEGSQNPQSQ

SMILES	IC50 (Vero) [µM]	IC50 [1] [µM]	IC50 (MCF7) [µM]	Efficacy (Estrogen receptor beta [2]) [%]	IC50 (DU-145) [µM]	Efficacy (Estrogen receptor beta [3]) [%]	Efficacy [4] [%]	IC50 (Histone deacetylase 1)	Efficacy [5] [%]	EC50 (Estrogen receptor [6]) [µM]	EC50 (Estrogen receptor beta [7]) [µM]	IC50 (Estrogen receptor [8]) [µM]	Ki (Estrogen receptor beta [9]) [µM]	Ki (Estrogen receptor [10]) [µM]	IC50 (Estrogen receptor beta [11]) [µM]	IC50 (Histone deacetylase 1; read-out: IC50) [µM]
O=C(O)CCCCCCC(=O)Nc1ccc(C2=C(c3ccc(O)cc3)C3CC(S(=O)(=O)Oc4cccc(O)c4)C2O3)cc1 (racemic)	> 100	0.071	3.6	120	23.8	105	77	Not Active	108	3.69	8.1					
O=C(CCCCCCC(=O)Nc1ccc(C2=C(c3ccc(O)cc3)C3CC(S(=O)(=O)Oc4ccc5ccccc5c4)C2O3)cc1)NO (stereo unspecified)	> 100	0.322	32.2	19	12.4	-17	13		-26			0.16	0.102	0.307	7.7	0.349
O=C(O)CCCCCCC(=O)Nc1ccc(C2=C(c3ccc(O)cc3)C3CC(S(=O)(=O)Oc4ccc5ccccc5c4)C2O3)cc1 (stereo unspecified)	> 100	8.11	18.9	94	58.3	19	-21		45		0.53	0.92				0.282
O=C(CCCCCCC(=O)Nc1ccc(OS(=O)(=O)C2CC3OC2C(c2ccc(O)cc2)=C3c2ccc(O)cc2)cc1)NO (stereo unspecified)	> 100	0.189	55.2	-27	42.3	3	-15		104				0.127	0.148	1.14	0.583
O=C(CCCCCCC(=O)Nc1ccc(C2=C(c3ccc(O)cc3)C3CC(S(=O)(=O)Oc4ccc(Br)cc4)C2O3)cc1)NO (racemic)	> 100	0.23	17.1	91	11.3	21	33	Not Active	101	1.14	0.173			> 5		
Cc1cccc(C)c1OS(=O)(=O)C1CC2OC1C(c1ccc(NC(=O)CCCCCCC(=O)O)cc1)=C2c1ccc(O)cc1 (racemic)	> 100		> 100	87	> 100	-8	61		127	0.32			0.971	> 5		
O=C(O)CCCCCCC(=O)Nc1ccc(C2=C(c3ccc(O)cc3)C3CC(S(=O)(=O)Oc4ccc(O)cc4)C2O3)cc1 (racemic)	> 100		> 100	23	> 100	69	79		99	2.42	13.4		0.039	0.133	11.7	
